Where two headings read alike, the source gives them in different places.

On the set-up of series [1]: method as in Dong et al., 1999. Particulars: following administration of grape juice, healthy Chinese subjects; ref Dong et al., 1999; cited from earlier work.
Series [2] in a line: Pharmacokinetics of oral omeprazole (40 mg) alone or with fresh grape juice in healthy male volunteers, plasma HPLC-UV, non-compartmental analysis. Particulars: for AUC / Tmax / Cmax: male, human, plasma; for AUC / Cmax: 40 mg. It is filed as in vivo, human. The procedure: The open-label and randomized study design was used to conduct the study in normal, healthy male volunteers. All volunteers were directed not to take any type of medication, including herbal medicines, for 2 weeks prior to clinical trials. Volunteers were divided into two groups. In treatment period-I, after overnight fasting, volunteers in group A received omeprazole (40 mg) alone, and volunteers in group B, […], were administered omeprazole (40 mg) along with grape juice (≈ 250 mL) on the fourth day. […] The volunteers in group B were given omeprazole (40 mg) alone. […] Blood samples (≈ 3 mL) were collected from each volunteer before the administration of the drug, as a blank, and following the administration of the drug at 0 […], and 24 h, in EDTA blood collection tubes. […] It was then centrifuged at 5,000 rpm for 5 min at -3°C. The supernatant was removed and evaporated in a nitrogen flux and then reconstituted in the mobile phase up to 0.5 mL and stored in a refrigerator. The samples were analyzed using a validated HPLC/UV-Vis chromatographic method developed for plasma sample analysis. The plasma samples were thawed on ice at room temperature and processed for analysis using the developed method. A calibration curve was plotted for varying concentrations of omeprazole, keeping the concentration of pantoprazole constant, and used as an internal standard. […] The concentration of pantoprazole was kept at 1 μg/ml as an internal standard. The concentration of omeprazole was 1 μg/mL, 1.5 μg/mL, and 2 μg/mL, and the concentration of internal standard was 1 μg/mL. The pharmacokinetic parameters of plasma omeprazole were calculated for each individual, using non-compartmental analysis of plasma concentration-time data with the help of PK-Summit® software. Cmax, the maximum plasma concentration, and tmax, the time to reach the maximum plasma concentration, were directly calculated from the analyzed data. The terminal half-life was calculated using the equation 0.693/kel, where kel represents the value of the elimination rate constant. The area under the plasma concentration-time curve was calculated according to the trapezoidal rule over the time interval 0 to the last measurable concentration (AUC0-t) and subsequent extrapolation to time infinity (AUC0-∞). The first moment of the plasma concentration vs. time curve (AUMC) is the plasma concentration multiplied by time vs. the time curve calculated by the same trapezoidal rule. The total body clearance (CL/F) was calculated as dose/AUC0-∞. The volume of distribution was calculated by multiplying total body clearance with the mean residence time (MRT). Statistical analysis was performed by paired t-test, and the pharmacokinetic parameters of omeprazole with water were compared with the parameters obtained from omeprazole administered with grape juice.

The conditions of series [3]: with repeated doses; cited from earlier work.
For series [4] the following is noted: previously reported range; cited from earlier work.
Series [5] can be described thus: Pharmacokinetics of oral omeprazole (40 mg) alone or with fresh grape juice in healthy male volunteers, plasma HPLC-UV, non-compartmental analysis. It is filed as in vivo, human. The settings on record: regular intake of 250 mL grape juice for 1 week before omeprazole.
Series [6] deals with H+/K+ ATPase or proton pump in parietal cells. Also noted: method as in Kromer et al., 1999. The settings on record: ref Kromer et al., 1999; cited from earlier work.

With `CCOc1ccc(NC(C)=O)cc1` [phenacetin], the “change of AUC” value in series [1] is listed as “reduced AUC”.
As usually defined, the Cmax is the highest concentration seen after dosing. In the case of `COc1ccc2[nH]c([S+]([O-])Cc3ncc(C)c(OC)c3C)nc2c1` (centres unmarked) [Omeprazole], the AUC turned out to be 6000 ± 1540 ng·h/mL in series [2] (oral, omeprazole 40 mg with water, read-out: AUC0 ∞); 5840 ng·h/mL in series [2] (po, omeprazole 40 mg oral alone with water, mean, read-out: AUC0t); 6000 ng·h/mL in series [2] (po, omeprazole 40 mg oral alone with water, mean, read-out: AUC0∞); 5840 ng·h/mL in series [2] (po, omeprazole 40 mg oral alone with water, read-out: AUC0 t); 6000 ng·h/mL in series [2] (po, omeprazole 40 mg oral alone, Table 4, read-out: AUC0∞); 2830 ng·h/mL in series [2] (po, omeprazole 40 mg oral with fresh grape juice, mean, read-out: AUC0 t). Besides, the AUC in series [2] (po, omeprazole 40 mg oral with fresh grape juice, mean, read-out: AUC0∞) turned out to be 2910 ng·h/mL. For the same compound, the Tmax in series [2] (oral, omeprazole 40 mg co-administered with fresh grape juice, read-out: mean time to reach the maximum plasma concentration (converted)) is 2.09 h; in series [2] (omeprazole 40 mg oral with fresh grape juice, mean, read-out: Tmax), 2.09 h. Further, the Cmax was 1950 ng/mL in series [2] (po, omeprazole 40 mg oral alone with water, mean) and 1020 ng/mL in series [2] (po, omeprazole 40 mg oral with 250 mL fresh grape juice after prior juice intake, mean). Also, the “AUMC0∞” value in series [2] (omeprazole 40 mg oral alone with water, mean) is given as 19.6 µg.hr*hr/mL; in series [2] (omeprazole 40 mg oral alone, Table 4), 19.6 µg.hr*h/mL; in series [2] (omeprazole 40 mg oral with fresh grape juice, mean), 10.36 µg.h*h/mL; in series [2] (omeprazole 40 mg oral with grape juice, Table 4), 10.36 µg.hr*h/mL. In addition, the “effect of grape juice on mean value of clearance” value in series [2] (omeprazole with grape juice versus alone) is given as “increased”. Besides, the “Ratio (OMP + juice/OMP) of AUC0 t” value in series [2] (with grape juice versus alone) is given as 0.4846. Besides, the “Ratio (OMP + juice/OMP) of AUC0∞” value in series [2] (with grape juice versus alone) is on record as 0.485. Further, in series [2] (with grape juice versus alone), the “Ratio (OMP + juice/OMP) of AUMC0∞” value was found to be 0.5286. Further, the “Ratio (OMP + juice/OMP) of Cmax” value in series [2] (with grape juice versus alone) is 0.5212. For the same compound, the “Ratio (OMP + juice/OMP) of Tmax” value in series [2] (with grape juice versus alone) was determined as 1.045. For the same compound, in series [3], the increase of bioavailability result is “up to 60%”. Also, in series [4], the “tmax, range already reported” value was 2 to 3 h. Moreover, in series [5], the “effect of grape juice on half-life” value was “not affected”. For the same compound, in series [6], the “duration of inhibition of gastric acid secretion” value was “up to 36 h”.

Source of the values: article PMC11652163, “Impact of fresh grape juice on the pharmacokinetics of omeprazole: results of a food–drug interaction study” (Frontiers in Pharmacology, 2024).
